Measured values from patent US8168596B2, “Use of cycloartane compounds for treating arthritis” (NuLiv Holding Inc., priority 2008, dated 2012).

Columns and labels:
[1] = system: MMP-9; test: Zymography of MMP-9 from pre-treated SW1353 cells; format: cell-based, human; settings: PMA-pre-treated SW1353; 0.1 μM, 24 h
Experimental: (§1) At the beginning of the experiment, the cells were pre-treated with 100 ng/mL PMA or 10 ng/mL IL-1β for 24 hours. The cells were then treated with 0.1 μM Dexamethasone, various astragaloside compounds (0.1 μM) or extracts of Astragalus membranaceous (1 μg/mL) at indicated dosages for another 24 hours. For control sample, 0.1% DMSO was used as a negative control for these experiments. The conditioned culture mediums were then centrifuged, 2-fold concentrated and collected for assay of collagens or MMPs secreted into the culture medium.
(§2) The proteolytic activities of MMPs from SW1353 cells were measured essentially as described previously (Circ Res, 1999; 85:906-911). The cells were lysed in lysis buffer (1% Triton X-100, 50 mM Tris-Cl, pH 7.4, 180 mM NaCl, 1 mM EDTA). The samples were measured for their protein concentration using the bicinchoninic acid (BCA) protein assay kit as described. Samples of concentrated conditioned medium and cell lysates were mixed with non-reducing electrophoresis loading buffer and subjected to electrophoresis under non-reducing conditions. The electrophoresis was carried out on a 10% SDS-PAGE co-polymerized with 2 mg/mL gelatin or casein (Sigma, St. Louis, Mo. USA). For zymographic analysis of pro-MMP-2 and activated MMP-2, the total 20 μg of culture medium were used for electrophoresis. Following electrophoresis, renaturation of the proteins was achieved by incubating the gels twice in 25 g/L Triton X-100 at room temperature for 10 min. Subsequently the gels were incubated in 50 mM Tris-HCl, pH 7.5 containing 0.2 M NaCl, 0.02% Brij35 and 10 mM CaCl2 at 37° C. for 18 hours. After the gels were stained with Coomassie Brilliant Blue R-250 and destained, zones of proteolytic activities became visible as transparent bands in the stained gel. In order to obtain higher sensitivity, the gels were further destained in a solution of 1% Triton X-100 (1 to 2 hours). This procedure increased the signal-to-noise ratio, allowing the visualization of faint gelatinase bands at 92 kDa, 125 kDa and greater than 200 kDa. Zymograms were read using a Molecular Dynamics (Sunnyvale, Calif., USA) computing laser densitometer with Image Quant software.

[2] = system: MMP-1; test: Western blot of MMP-1 in PMA- or IL-1β-pre-treated SW1353 cells (Example 6); format: cell-based, human; settings: 48 h
Experimental: (§3) The cells were then plated on 6-cm dishes at a density of 1×10^6 cells/dish for 24 hours prior to any treatment. At the beginning of the experiment, the cells were pre-treated with 100 ng/mL PMA or 10 ng/mL IL-1β for 24 hours. The cells were then treated 0.1 μM Dexamethasone with, various astragaloside compounds (0.1 μM) or extracts of Astragalus membranaceous (1 μg/mL) at indicated dosages for another 48 hours. For control sample, 0.1% DMSO was used as a negative control for these experiments. The conditioned culture mediums were then centrifuged, 2-fold concentrated and collected for assay of collagens or MMPs secreted into the culture medium.
(§4) Western blotting analysis was carried out on both cultured medium and cell lysates, as follows. The cells were washed and lysed in 0.2 mL of lysis buffer (1% NP-40, 50 mM Tris-HCl, pH 7.4, 180 mM NaCl, 1 mM EDTA, 1 mM PMSF, 1 mM NaF, 10 mM Na3VO4) for 30 min at 4° C. After centrifuging at 17500 g for 15 min, the supernatants of cell lysate were also collected. Protein concentration of the samples were measured using the bicinchoninic acid (BCA) protein assay kit according to the manufacturer's protocol (Pierce, Rockford, Ill., USA). Equal amount of protein samples of concentrated conditioned medium (100 μg) or cell lysate supernatants (50 μg) were mixed with an appropriate volume of 4×SDS sampling buffer and separated by 8% SDS-PAGE gel. The protein bands separated in the SDS-PAGE gel were blotted onto a polyvinylidene fluoride (PVDF) membrane. The blotted PVDF membrane was washed twice and blocked in freshly prepared Tris-buffered saline (TBS) containing 0.1% Tween-20 and 7% skim milk (TBST) for 2 hours at room temperature. The PVDF membrane was then incubated with either antibodies against collagen I and III or the housekeeping protein α-tubulin (Santa Cruz Biotechnology, Santa Cruz, Calif.) for 18 hours at 4° C. Horseradish peroxidase-conjugated anti-goat antibody was used as secondary antibody. Signals were visualized by an enhanced chemiluminescence kit (Clonetech, Palo Alto, Calif., USA) followed by exposure to X-ray films.

[3] = system: ERK1 (P44) and ERK2 (P42); test: Western blotting of ERK1/ERK2 in PMA-treated SW1353 cells; format: cell-based, human; settings: PMA 100 ng/mL 2 h, then 1 μM AS4 24 h; value without AS4 2.7
[4] = system: MMP-2; test: Zymography of MMP-2 from pre-treated SW1353 cells; format: cell-based, human; settings: PMA-pre-treated SW1353; 0.1 μM, 24 h
Experimental: as §1, §2

[5] = system: MMP-13; test: Western blot of MMP-13 in pre-treated human chondrocytes (HCHs); format: cell-based; settings: IL-1β-pre-treated HCH culture medium; compounds 0.1 μM, 48 h
[6] = system: MMP-13; test: Western blot of MMP-13 in PMA- or IL-1β-pre-treated SW1353 cells (Example 6); format: cell-based, human; settings: 0.1 μM, 48 h
Experimental: as §3
as §4, with “The PVDF membrane was then incubated with either antibodies against collagen I and III or the housekeeping protein α-tubulin (Santa Cruz Biotechnology, Santa Cruz, Calif.) for 18 hours at 4° C.” left out

[7] = system: Type II Collagen; test: Western blot of Type II Collagen in pre-treated human chondrocytes (HCHs); format: cell-based; settings: IL-1β-pre-treated HCH culture medium; compounds 0.1 μM, 48 h

## CC(C)(O)[C@@H]1CC[C@](C)([C@H]2[C@@H](O)C[C@@]3(C)[C@@H]4C[C@H](O[C@@H]5O[C@H](CO)[C@@H](O)[C@H](O)[C@H]5O)[C@H]5C(C)(C)[C@@H](O[C@@H]6OC[C@@H](O)[C@H](O)[C@H]6O)CC[C@@]56C[C@@]46CC[C@]23C)O1 [AS4, Astragaloside IV]
[1]
  MMP-9, Zymography, relative to Ctrl 1.00: 1.04
[2]; IL-1β-pre-treated SW1353 cell extract, compounds 0.1 μM
  MMP-1, Western blot, relative to Ctrl 1.00: 0.22
[2]; PMA-pre-treated SW1353 cell extract, 0.1 μM
  MMP-1, Western blot, relative to Ctrl 1.00: 0.74
[3]
  value of expression of ERK1 (P44) and ERK2 (P42): 1.7
[4]
  MMP-2, Zymography, relative to Ctrl 1.00: 1.01
[5]
  MMP-13, Western blot, relative to Ctrl 1.00: 0.55
[6]; IL-1β-pre-treated SW1353 cell extract
  MMP-13, Western blot, relative to Ctrl 1.00: 1.10
[6]; IL-1β-pre-treated SW1353 culture medium
  MMP-13, Western blot, relative to Ctrl 1.00: 0.56
[6]; PMA-pre-treated SW1353 cell extract
  MMP-13, Western blot, relative to Ctrl 1.00: 0.79
[7]
  Type II Collagen, Western blot, relative to Ctrl 1.00: 1.16
